From PMC7962642, “A Synergic Potential of Antimicrobial Peptides against Pseudomonas syringae pv. actinidiae” (Molecules, 2021)
Converted amounts (≈) assume the structure as drawn. Read-outs that look alike come from different tables or passages of the source. No end group written: not given here.

How the values were obtained:
[1] = tested on: Nicotiana tabacum cv. 'Havana' leaves; assay: AMP toxicity on tobacco leaves by syringe infiltration; assay type: in vivo; conditions: AMP alone in PBS at assay concentration
Description: To assess the HR, the Psa reference CFBP7286 strain was used. CFBP7286 cells were more exposed to the AMPs (doses and periods of exposure) than those used on the flow cytometry and the CFUs analyzes; from individual effects of AMPs on the reference CFBP7286 strain, the HR was assessed. Tobacco plants (Nicotiana tabacum cv. ‘Havana’) were sown in plant pots of 1 L in peat substrate (Siro, Mira, Portugal). Plants were grown for 8 weeks in a growth chamber with a controlled temperature at 25 °C ± 2 and relative humidity at 50% ± 5. Psa infiltration on tobacco plants for HR was performed according to Stefani and Loreti using a syringe tip to inoculate 1 mL of bacterial suspension after 1 h of AMPs treatments in the abaxial side of the leaves. PBS was used as a negative control and Psa CFBP7286 at the same concentration and diluted in PBS for 1 h as the treatment was infiltrated as a positive control for HR. The AMPs at the assay concentration were prepared in PBS and infiltrated, also as a negative control of the treatment. The development of HR was monitored within 24 and 48 h post infiltration (hpi). Three tobacco plants, and three leaves of each plant, were used in three independent experiments.

Psa strains [2] = assay: Minimal bactericidal concentration (MBC), subculture on peptide-free King's B agar; assay type: cell-based, Pseudomonas syringae pv. actinidiae
Description: (§1) All strains were obtained from stocks preserved at –80 °C and cultured in King’s B medium (protease peptone, 20.0 g; anhydrous K2HPO4, 1.5 g; glycerol, 10.0 mL; MgSO4·7H2O, 1.5 g; agar, […]; distilled water up to 1.0 L). Individual colonies of each strain were selected and re-streaked two times to ensure purity. Psa strains were isolated in different infected kiwifruit orchards between 2013 and 2017. CFBP7286 was used as Psa biovar 3 reference strain. For the antibiogram assays, pure colonies of all bacterial strains were grown overnight in Muller-Hinton Broth (MHB; Oxoid), at 28 °C and 240 rpm. Bacterial growth was monitored and adjusted to 0.135 optical density at 600 nm (OD600) in a spectrophotometer (Genesys 10uv Scanning, Thermo Scientific). […] For flow cytometry experiments, bacteria were cultured in King’s B broth medium for 20 h, at 25 °C in a shaking incubator at 200 rpm.
(§2) The MIC and MBC were determined for peptides discriminated by the antibiograms as the most efficient, i.e., RW-BP100, CA-M, 3.1, and BP100. […] In this assay, additional concentrations to those used in the antibiogram analysis were included in order to obtain more accurate results. Sterile 96-well microplates were filled with 150 µL of peptide and bacterial solution in a 1:1 ratio, leading to final concentrations of peptides equal to 0.25, 0.75, 1.6, 3.4, 6.2, 10, 25, 50, and 100 µM. As negative control a bacterial-free solution and sterile distilled water was used, and positive control with chlortetracycline to a final concentration of 25 µM was used. Microplates were incubated at 25 °C and 130 rpm and OD600 was measured hourly for 24 h, with 30 s vigorous shaking before each reading. The experiment was repeated three distinct times with different fresh bacterial colonies.
(§3) Data from bacterial growth curves were analyzed to determine IC50 values with two-way ANOVA and Tukey tests (p < 0.05). MIC values were set as the peptide lowest concentrations that reduced bacterial growth.

Psa CFBP7286 = assay type: cell-based; conditions: 1 h treatment; alone or combined with 3.1 at equal concentrations
Description: The number of viable bacteria cells of CFBP7286 strains was determined by CFU counting, using bacteria inocula exposed to the same AMPs (doses and periods of exposure) than those used on the flow cytometry assays. In the individual evaluation of BP100, CA-M, and 3.1 AMPs as well as the mixtures BP100:3.1 and CA-M:3.1, CFUs were determined by the drop method in the plate. All treated samples and controls were subjected to 10 serial ^1/10 dilutions in sterile PBS and 10 μL of each dilution was cultured on King’s B agar (1.5%) plates, with further incubation at 25 °C for 24 h. After the incubation time, plates were recorded in a GelDoc (BioRad) and colonies were counted for the last dilution with bacterial growth. This experiment was performed in three biological and temporal replicates.

Psa strains [3] = assay: IC50 from bacterial growth curves; assay type: cell-based, Pseudomonas syringae pv. actinidiae; conditions: based on bacterial growth curves, read-out: half-maximal inhibitory concentration (IC50)
Description: as §2, §3

tobacco leaf = conditions: cited from earlier work
Text: The assays on tobacco plants are often used to analyze the toxicity effects of AMPs [[29],[30],[49],[5 ...

Psa strains [4] = assay: Minimal inhibitory concentration (MIC), microplate growth in MHB; assay type: cell-based, Pseudomonas syringae pv. actinidiae
Description: as §1, §2, §3

[5] = tested on: Pseudomonas syringae pv. actinidiae (Psa) strains; assay: Antibiogram assay (peptide drop on inoculated MH agar); assay type: cell-based; design: key: “ns” means the strain was not susceptible to the peptide in the tested concentration range; conditions: 1 µL drop on MH agar, 25 °C, 24 h, tested 0.4-200 µM
Description: All strains were obtained from stocks preserved at –80 °C and cultured in King’s B medium (protease peptone, 20.0 g; anhydrous K2HPO4, 1.5 g; glycerol, 10.0 mL; MgSO4·7H2O, 1.5 g; agar, […]; distilled water up to 1.0 L). Individual colonies of each strain were selected and re-streaked two times to ensure purity. Psa strains were isolated in different infected kiwifruit orchards between 2013 and 2017. CFBP7286 was used as Psa biovar 3 reference strain. For the antibiogram assays, pure colonies of all bacterial strains were grown overnight in Muller-Hinton Broth (MHB; Oxoid), at 28 °C and 240 rpm. Bacterial growth was monitored and adjusted to 0.135 optical density at 600 nm (OD600) in a spectrophotometer (Genesys 10uv Scanning, Thermo Scientific). […]
All six AMPs, BP100, RW-BP100, CA-M, D4E1, 3.1, and Dhvar-5 (Table 3), were evaluated by antibiogram assays to determine the most promising peptides against the selected bacterial strains. […]
For the pre-incubation, bacterial cultures were inoculated in Muller-Hinton (MH; Oxoid) agar (1.5%) medium by spreading 1 mL of each culture, removing the excess after 1 min and allowing drying for 15 min. […] After the incubation period, plate images were acquired on Gel Doc (BioRad, Hercules, CA, USA) and AMP activity was determined by no growth on drop site for each concentration. […]

[6] = reference strain CFBP7286, subculture on peptide-free King's B agar, 25 °C, 24 h
[7] = strain AL114b, subculture on peptide-free King's B agar, 25 °C, 24 h
[8] = strain AL115, subculture on peptide-free King's B agar, 25 °C, 24 h
[9] = strain Fv62, subculture on peptide-free King's B agar, 25 °C, 24 h
[10] = strain P85, subculture on peptide-free King's B agar, 25 °C, 24 h
[11] = strain VN29, subculture on peptide-free King's B agar, 25 °C, 24 h
[12] = strain VV10, subculture on peptide-free King's B agar, 25 °C, 24 h
[13] = strain VV112, subculture on peptide-free King's B agar, 25 °C, 24 h
[14] = summary over the eight Psa strains (abstract)
[15] = all strains (for CA-M except P85 and VN29), repeated three times
[16] = reference strain CFBP7286, MHB, 96-well, 25 °C, 130 rpm, OD600 hourly for 24 h, repeated three times
[17] = strain AL114b, MHB, 96-well, 25 °C, 130 rpm, OD600 hourly for 24 h, repeated three times
[18] = strain AL115, MHB, 96-well, 25 °C, 130 rpm, OD600 hourly for 24 h, repeated three times
[19] = strain Fv62, MHB, 96-well, 25 °C, 130 rpm, OD600 hourly for 24 h, repeated three times
[20] = strain P85, MHB, 96-well, 25 °C, 130 rpm, OD600 hourly for 24 h, repeated three times
[21] = strain VN29, MHB, 96-well, 25 °C, 130 rpm, OD600 hourly for 24 h, repeated three times
[22] = strain VV10, MHB, 96-well, 25 °C, 130 rpm, OD600 hourly for 24 h, repeated three times
[23] = strain VV112, MHB, 96-well, 25 °C, 130 rpm, OD600 hourly for 24 h, repeated three times

Compound	AMP toxicity on tobacco plants [1]	MBC (Psa strains [2]; [6])	MBC (Psa strains [2]; [7])	MBC (Psa strains [2]; [8])	MBC (Psa strains [2]; [9])	MBC (Psa strains [2]; [10])	MBC (Psa strains [2]; [11])	MBC (Psa strains [2]; [12])	MBC (Psa strains [2]; [13])	MBC (Psa strains [2]; [14])	IC50 (Psa strains [3]; [15])	MIC (Psa strains [4]; [16])	MIC (Psa strains [4]; [17])	MIC (Psa strains [4]; [18])	MIC (Psa strains [4]; [19])	MIC (Psa strains [4]; [20])	MIC (Psa strains [4]; [21])	MIC (Psa strains [4]; [22])	MIC (Psa strains [4]; [23])	further results
CC[C@H](C)[C@H](NC(=O)[C@H](CCCCN)NC(=O)[C@H](CCCCN)NC(=O)[C@H](Cc1ccccc1)NC(=O)[C@H](CC(C)C)NC(=O)[C@H](CCCCN)NC(=O)[C@@H](N)CCCCN)C(=O)N[C@@H](CC(C)C)C(=O)N[C@@H](CCCCN)C(=O)N[C@@H](Cc1ccc(O)cc1)C(=O)N[C@@H](CC(C)C)C(N)=O [BP100, reference compound]	absence/low toxicity	3.4 µM (≈ 4.83 µg/mL)	3.4 µM (≈ 4.83 µg/mL)	3.4 µM (≈ 4.83 µg/mL)	10 µM (≈ 14.2 µg/mL)	6.2 µM (≈ 8.81 µg/mL)	6.2 µM (≈ 8.81 µg/mL)	6.2 µM (≈ 8.81 µg/mL)	10 µM (≈ 14.2 µg/mL)	3.4 to 10 µM	~2 µM	3.4 µM (≈ 4.83 µg/mL)	3.4 µM (≈ 4.83 µg/mL)	3.4 µM (≈ 4.83 µg/mL)	3.4 µM (≈ 4.83 µg/mL)	3.4 µM (≈ 4.83 µg/mL)	3.4 µM (≈ 4.83 µg/mL)	3.4 µM (≈ 4.83 µg/mL)	3.4 µM (≈ 4.83 µg/mL)	lethal concentration of BP100 by CFUs (Psa CFBP7286): 2 µM; tobacco leaf lesions (tobacco leaf; at 50 µM): 4 mm; tobacco leaf lesions (tobacco leaf; at 250 µM): 12.5 mm
KKLLKWLLKLL-NH2 [3.1]	absence/low toxicity	25 µM	25 µM	10 µM	25 µM	25 µM	25 µM	25 µM	25 µM	–	–	10 µM	25 µM	10 µM	10 µM	25 µM	10 µM	10 µM	10 µM	–
KWKLFKKIGAVLKVL-NH2 [CA-M]	absence/low toxicity	6.2 µM	10 µM	6.2 µM	10 µM	6.2 µM	6.2 µM	6.2 µM	6.2 µM	3.4 to 10 µM	~2 µM	3.4 µM	3.4 µM	3.4 µM	3.4 µM	6.2 µM	6.2 µM	3.4 µM	3.4 µM	IC50 (Psa strains [3]; strain P85): ~4 µM; IC50 (Psa strains [3]; strain VN29): ~4 µM; MIC (Psa strains [4]; [14]): 3.4 to 6.2 µM
LLLFLLKKRKKRKY-NH2 [Dhvar-5]	–	–	–	–	–	–	–	–	–	–	–	–	–	–	–	–	–	–	–	antibiogram inhibitory concentration ([5]; strain VC104b): ns; antibiogram inhibitory concentration ([5]; strain VN29): ns
RRLFRRILRWL-NH2 [RW-BP100]	–	6.2 µM	6.2 µM	6.2 µM	6.2 µM	6.2 µM	6.2 µM	6.2 µM	6.2 µM	–	–	3.4 µM	6.2 µM	6.2 µM	6.2 µM	6.2 µM	6.2 µM	6.2 µM	6.2 µM	–
